# Measured values as given in US4157399A, “Benzo(B)thiophenes” (Parcor, priority 1976, dated 1979).
# Where a name gives a salt, the structure may show the parent alone.
# Legend:
# Type in all cases: in vivo
# [1] = test system: aortic atheromatous lesions; assay: Rabbit autopsy, mark for aortic atheromatous lesions; conditions: mark of 0 to 4; end of test (75 days); 100 mg/Kg orally
# Experimental: (§1) The animals divided into several batches of 15 animals are fed with feedstuff enriched in cholesterol (1%). Batch A serves as control and is not treated, the other batches also receive the derivatives to be tested at a dose of 100 mg/Kg, administered orally, suspended in aqueous solution of gum arabic at 5%. On the first day of experimentation and then every 15 days for 75 days biological examinations are conducted on all the animals, during which the various elements causing dyslipemia are dosed; total cholesterol (T), esterified cholesterol (E), free cholesterol (L), esterification ratio (E/T), Kunkel-Phenol test (K1), Kunkelphenol test (K2), Burstein dextrane test (B) and serum lipids (LS).
# (§2) At the end of the test all the animals are killed and an autopsy is carried out; a macroscopic examination is then conducted on the livers and aortas and a mark of 0 to 3 is given to the amount of fatty infiltrations of the liver and 0 to 4 to the intensity of aortic atheromatous lesions.
# [2] = Propylthiouracil test, free and total cholesterol in the rat; conditions: 11th day; propylthiouracil-treated rats; oral 100 mg/Kg
# Experimental: Experiments were carried out according to the propylthiouracil test (RANNEY & Coll., J. PHARMACOL. EXPER. THERAP. 1963, 142, 132-136). The propyl-thiouracil administered to adult rats has the property of making them hypercholesterolemic: the plasma level of cholesterol increases by approximately 15% under these conditions. Experiments are conducted on various batches of rats, the control batch receiving only propylthiouracil and the other treated batches also receiving the composition of the invention at an oral dose of 100 mg/Kg.
# On the 11th day of experimentation blood samples are taken and the free cholesterol and total cholesterol is dosed.
# [3] = test system: fatty infiltrations of the liver; assay: Rabbit autopsy, mark for fatty infiltrations of the liver; conditions: mark of 0 to 3; end of test (75 days); 100 mg/Kg orally
# Experimental: as §1, §2
# [4] = Rabbit fed cholesterol-enriched (1%) feedstuff, dosage of elements causing dyslipemia; set-up: total cholesterol (T) / esterified cholesterol (E) / Kunkelphenol test (K2) / Burstein dextrane test (B) / serum lipids (LS): unit not given here; conditions: 100 mg/Kg orally
# Experimental: as §1
compound,measurement,setting,value
"CCN(CC)c1c(-c2ccc(Cl)cc2)sc2ccccc12 [derivative 37, Hydrochloride of 2-(4-chlorophenyl)-3-diethylamino-benzo(b)thiophene]",aortic atheromatons lesions,[1],"1,3"
same,Free cholesterol,[2],"0,13 g/l"
same,Total cholesterol,[2],"0,58 g/l"
same,fatty infiltrations of the liver,[3],"1,00"
same,Burstein dextrane test (B),[4]; 1st day,"10,5"
same,Kunkel-Phenol test (K1),[4]; 1st day,"8,2"
same,Kunkelphenol test (K2),[4]; 1st day,"12,9"
same,esterification ratio (E/T),[4]; 1st day,"0,47"
same,esterified cholesterol (E),[4]; 1st day,"0,27"
same,free cholesterol (L),[4]; 1st day,"0,30"
same,serum lipids (LS),[4]; 1st day,"2,00"
same,total cholesterol (T),[4]; 1st day,"0,57"
same,Burstein dextrane test (B),[4]; 30th day,"21,3"
same,Kunkel-Phenol test (K1),[4]; 30th day,"18,8"
same,Kunkelphenol test (K2),[4]; 30th day,"25,1"
same,esterification ratio (E/T),[4]; 30th day,"0,62"
same,esterified cholesterol (E),[4]; 30th day,"0,97"
same,free cholesterol (L),[4]; 30th day,"0,58"
same,serum lipids (LS),[4]; 30th day,"2,85"
same,total cholesterol (T),[4]; 30th day,"1,55"
same,Burstein dextrane test (B),[4]; 75th day,"35,7"
same,Kunkel-Phenol test (K1),[4]; 75th day,"32,8"
same,Kunkelphenol test (K2),[4]; 75th day,"46,7"
same,esterification ratio (E/T),[4]; 75th day,"0,61"
same,esterified cholesterol (E),[4]; 75th day,"1,80"
same,free cholesterol (L),[4]; 75th day,"1,14"
same,serum lipids (LS),[4]; 75th day,"4,15"
same,total cholesterol (T),[4]; 75th day,"2,94"
